Reference: PubChem BioAssay (NCI)
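Cells were grown in 96-well plates and exposed to each compound for 48 hours at five concentrations; endpoints were interpolated linearly between bracketing concentrations, or set to the highest concentration if not reached. TGI: total growth inhibition.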

Tests used:
Experiment in all cases: DTP human tumour cell line panel, 48 h
786-0 renal = tested on: 786-0 renal
A498 renal = tested on: A498 renal
A549 NSCLC = tested on: A549 NSCLC
ACHN renal = tested on: ACHN renal
BT-549 breast = tested on: BT-549 breast
CAKI-1 renal = tested on: CAKI-1 renal
CCRF-CEM leukemia = tested on: CCRF-CEM leukemia
COLO 205 colon = tested on: COLO 205 colon
DU-145 prostate = tested on: DU-145 prostate
EKVX NSCLC = tested on: EKVX NSCLC
HCC-2998 colon = tested on: HCC-2998 colon
HCT-116 colon = tested on: HCT-116 colon
HCT-15 colon = tested on: HCT-15 colon
HL-60(TB) leukemia = tested on: HL-60(TB) leukemia
HOP-62 NSCLC = tested on: HOP-62 NSCLC
HS 578T breast = tested on: HS 578T breast
HT29 colon = tested on: HT29 colon
IGROV1 ovarian = tested on: IGROV1 ovarian
K-562 leukemia = tested on: K-562 leukemia
KM12 colon = tested on: KM12 colon
LOX IMVI melanoma = tested on: LOX IMVI melanoma
M14 melanoma = tested on: M14 melanoma
MCF7 breast = tested on: MCF7 breast
MDA-MB-231 breast = tested on: MDA-MB-231 breast
MDA-MB-435 = tested on: MDA-MB-435
MDA-N = tested on: MDA-N
MOLT-4 leukemia = tested on: MOLT-4 leukemia
NCI-H226 lung = tested on: NCI-H226 lung
NCI-H23 lung = tested on: NCI-H23 lung
NCI-H460 lung = tested on: NCI-H460 lung
NCI-H522 lung = tested on: NCI-H522 lung
OVCAR-8 ovarian = tested on: OVCAR-8 ovarian
PC-3 prostate = tested on: PC-3 prostate
RPMI-8226 leukemia = tested on: RPMI-8226 leukemia
SF-268 CNS = tested on: SF-268 CNS
SF-295 CNS = tested on: SF-295 CNS
SF-539 CNS = tested on: SF-539 CNS
SK-MEL-28 melanoma = tested on: SK-MEL-28 melanoma
SK-MEL-5 melanoma = tested on: SK-MEL-5 melanoma
SK-OV-3 ovarian = tested on: SK-OV-3 ovarian
SN12C renal = tested on: SN12C renal
SNB-19 CNS = tested on: SNB-19 CNS
SNB-75 CNS = tested on: SNB-75 CNS
SR leukemia = tested on: SR leukemia
SW-620 colon = tested on: SW-620 colon
T-47D breast = tested on: T-47D breast
TK-10 renal = tested on: TK-10 renal
UACC-257 melanoma = tested on: UACC-257 melanoma
UACC-62 melanoma = tested on: UACC-62 melanoma
UO-31 renal = tested on: UO-31 renal
HOP-92 NSCLC = tested on: HOP-92 NSCLC
NCI/ADR-RES ovarian = tested on: NCI/ADR-RES ovarian
OVCAR-3 ovarian = tested on: OVCAR-3 ovarian
OVCAR-4 ovarian = tested on: OVCAR-4 ovarian
OVCAR-5 ovarian = tested on: OVCAR-5 ovarian
RXF 393 renal = tested on: RXF 393 renal
SK-MEL-2 melanoma = tested on: SK-MEL-2 melanoma
U251 CNS = tested on: U251 CNS

Question: How did the TGI (786-0 renal) turn out when `COc1cccc(C=C2N=C(C)N(n3c(-c4ccccc4)nc4ccccc4c3=O)C2=O)c1` was run?
Answer: > 100 µM

Question: And the TGI (A498 renal)?
Answer: > 100 µM

Question: What about the TGI (A549 NSCLC) of the same compound?
Answer: > 100 µM

Question: And the TGI (ACHN renal)?
Answer: > 100 µM

Question: And the TGI (BT-549 breast)?
Answer: > 100 µM

Question: And the TGI (CAKI-1 renal)?
Answer: > 100 µM

Question: What about the TGI (CCRF-CEM leukemia) of the same compound?
Answer: > 100 µM

Question: And the TGI (COLO 205 colon)?
Answer: > 100 µM

Question: And the TGI (DU-145 prostate)?
Answer: > 100 µM

Question: What about the TGI (EKVX NSCLC) of the same compound?
Answer: > 100 µM

Question: And the TGI (HCC-2998 colon)?
Answer: > 100 µM

Question: What about the TGI (HCT-116 colon) of the same compound?
Answer: > 100 µM

Question: What about the TGI (HCT-15 colon) of the same compound?
Answer: > 100 µM

Question: And the TGI (HL-60(TB) leukemia)?
Answer: > 100 µM

Question: And the TGI (HOP-62 NSCLC)?
Answer: > 100 µM

Question: What about the TGI (HS 578T breast) of the same compound?
Answer: > 100 µM

Question: And the TGI (HT29 colon)?
Answer: > 100 µM

Question: And the TGI (IGROV1 ovarian)?
Answer: > 100 µM

Question: And the TGI (K-562 leukemia)?
Answer: > 100 µM

Question: What about the TGI (KM12 colon) of the same compound?
Answer: > 100 µM

Question: And the TGI (LOX IMVI melanoma)?
Answer: > 100 µM

Question: What about the TGI (M14 melanoma) of the same compound?
Answer: > 100 µM

Question: And the TGI (MCF7 breast)?
Answer: > 100 µM

Question: And the TGI (MDA-MB-231 breast)?
Answer: > 100 µM

Question: And the TGI (MDA-MB-435)?
Answer: > 100 µM

Question: What about the TGI (MDA-N) of the same compound?
Answer: > 100 µM

Question: What about the TGI (MOLT-4 leukemia) of the same compound?
Answer: > 100 µM

Question: What about the TGI (NCI-H226 lung) of the same compound?
Answer: > 100 µM

Question: What about the TGI (NCI-H23 lung) of the same compound?
Answer: > 100 µM

Question: What about the TGI (NCI-H460 lung) of the same compound?
Answer: > 100 µM

Question: And the TGI (NCI-H522 lung)?
Answer: > 100 µM

Question: What about the TGI (OVCAR-8 ovarian) of the same compound?
Answer: > 100 µM

Question: And the TGI (PC-3 prostate)?
Answer: > 100 µM

Question: What about the TGI (RPMI-8226 leukemia) of the same compound?
Answer: > 100 µM

Question: And the TGI (SF-268 CNS)?
Answer: > 100 µM

Question: And the TGI (SF-295 CNS)?
Answer: > 100 µM

Question: What about the TGI (SF-539 CNS) of the same compound?
Answer: > 100 µM

Question: What about the TGI (SK-MEL-28 melanoma) of the same compound?
Answer: > 100 µM

Question: What about the TGI (SK-MEL-5 melanoma) of the same compound?
Answer: > 100 µM

Question: What about the TGI (SK-OV-3 ovarian) of the same compound?
Answer: > 100 µM

Question: And the TGI (SN12C renal)?
Answer: > 100 µM

Question: What about the TGI (SNB-19 CNS) of the same compound?
Answer: > 100 µM

Question: What about the TGI (SNB-75 CNS) of the same compound?
Answer: > 100 µM

Question: What about the TGI (SR leukemia) of the same compound?
Answer: > 100 µM

Question: And the TGI (SW-620 colon)?
Answer: > 100 µM

Question: What about the TGI (T-47D breast) of the same compound?
Answer: > 100 µM

Question: And the TGI (TK-10 renal)?
Answer: > 100 µM

Question: What about the TGI (UACC-257 melanoma) of the same compound?
Answer: > 100 µM

Question: What about the TGI (UACC-62 melanoma) of the same compound?
Answer: > 100 µM

Question: And the TGI (UO-31 renal)?
Answer: > 100 µM

Question: What does the source list for `N#CCCN(CCC#N)c1ccc(C(N=Nc2ccc(Cl)cc2)=Nc2ccc(Cl)cc2)cc1`?
Answer: TGI (786-0 renal): 34.7 µM; TGI (A498 renal): 43.3 µM; TGI (A549 NSCLC): 41 µM; TGI (ACHN renal): 34 µM; TGI (BT-549 breast): 36.3 µM; TGI (CAKI-1 renal): 45.2 µM; TGI (CCRF-CEM leukemia): 65.3 µM; TGI (COLO 205 colon): 31.9 µM; TGI (DU-145 prostate): 30.3 µM; TGI (EKVX NSCLC): 85.3 µM; TGI (HCC-2998 colon): 27.1 µM; TGI (HCT-116 colon): 36.5 µM; TGI (HCT-15 colon): 23.7 µM; TGI (HOP-62 NSCLC): 50.8 µM; TGI (HOP-92 NSCLC): 38.8 µM; TGI (HS 578T breast): 35.2 µM; TGI (HT29 colon): 44.6 µM; TGI (IGROV1 ovarian): 28.1 µM; TGI (K-562 leukemia): > 100 µM; TGI (KM12 colon): 44.1 µM; TGI (M14 melanoma): 58.7 µM; TGI (MCF7 breast): 24.7 µM; TGI (MDA-MB-231 breast): 42 µM; TGI (MDA-MB-435): 88.3 µM; TGI (MDA-N): 40.8 µM; TGI (MOLT-4 leukemia): 87.8 µM; TGI (NCI-H226 lung): 36.7 µM; TGI (NCI-H23 lung): 41.8 µM; TGI (NCI-H460 lung): 29.2 µM; TGI (NCI-H522 lung): 32.5 µM; TGI (NCI/ADR-RES ovarian): 38 µM; TGI (OVCAR-3 ovarian): 36.9 µM; TGI (OVCAR-4 ovarian): 81.2 µM; TGI (OVCAR-5 ovarian): 43.8 µM; TGI (OVCAR-8 ovarian): 31.4 µM; TGI (PC-3 prostate): 32.1 µM; TGI (RPMI-8226 leukemia): > 100 µM; TGI (RXF 393 renal): 29.1 µM; TGI (SF-268 CNS): 33.4 µM; TGI (SF-295 CNS): 29.2 µM; TGI (SF-539 CNS): 38.6 µM; TGI (SK-MEL-2 melanoma): 25 µM; TGI (SK-MEL-28 melanoma): > 100 µM; TGI (SK-MEL-5 melanoma): 24.7 µM; TGI (SK-OV-3 ovarian): > 100 µM; TGI (SN12C renal): 33.5 µM; TGI (SNB-19 CNS): 53.3 µM; TGI (SNB-75 CNS): 45.6 µM; TGI (SR leukemia): > 100 µM; TGI (SW-620 colon): 34.3 µM; TGI (T-47D breast): 23.9 µM; TGI (TK-10 renal): 33.5 µM; TGI (U251 CNS): 33.2 µM; TGI (UACC-257 melanoma): 29.7 µM; TGI (UACC-62 melanoma): 30.2 µM; TGI (UO-31 renal): 29.4 µM
